pIC50: −log10 of the molar value. Marks after values point to notes of the source that are not given here.
Columns and labels:
[1] = test system: cellular DNA polymerase beta; conditions: cited from earlier work
[2] = test system: cellular DNA polymerase gamma; conditions: cited from earlier work
[3] = test system: viral reverse transcriptase; conditions: cited from earlier work
[4] = test system: mammalian DNA polymerase alpha; conditions: cited from earlier work
[5] = test system: normal helper/inducer TM3 cells; assay: Immune reactivity of normal lymphocytes: tetanus toxoid-driven activation of clone TM3; assay type: cell-based; conditions: 72 hours
Experimental: There was tested the effects of the various 2',3'-dideoxynucleosides on the antigen-specific and lectin-induced reactivity of normal lymphocytes in vitro (Table 2). There was used a normal clone (TM3)of tetanus-toxoid specific helper/inducer T-cells to monitor the effects of the compounds on antigen-driven activation and normal circulating lymphocytes to monitor effects on pokeweed mitogen and phytohaemagglutinin-driven activation. Concentrations of these compounds, including those that were 10- to 20-fold higher than those necessary to block the in vitro infectivity and cytopathic effect of HIV (HTLV-III/LAV) left the in vitro immune reactivity of normal lymphocytes basically intact.
^2 5 × 10^4 normal helper/inducer TM3 cells were stimulated
with tetanus toxoid (0.6 limiting flocculation units/ml) plus 10^5
irradiated (4,000 rad) autologous peripheral blood mononuclear cells (PBM
as a source of accessory cells and cultured for 72 hours in the presence
or absence of the 2',3dideoxynucleoside. After exposure to 0.5 uCi^3
Hthymidine or 1 uCi ^3 Huidine for the final 5 hours, cells were
harvested onto glass fibers and the incorporated radioactivity was
counted. Data are expressed as the arithmetic mean counts per minute
(×10^3) ± 1 standard deviation triplicate determinations.

[6] = test system: PBM (peripheral blood mononuclear cells) stimulated with phytohaemagglutinin; assay: Immune reactivity of normal lymphocytes: PBM + PHA; assay type: cell-based; conditions: 72 hours
[7] = test system: PBM (peripheral blood mononuclear cells) stimulated with pokeweed mitogen; assay: Immune reactivity of normal lymphocytes: PBM + PWM; assay type: cell-based; conditions: 72 hours
HSV-1 [8] = assay: Antiviral activity against HSV-1 (first line); assay type: cell-based; conditions: Human alphaherpesvirus 1; primary rabbit kidney cell cultures; first HSV-1 line; read-out: Minimal Inhibitory Concentration (required to reduce virus-induced cytopathogenicity by 50%)
HSV-1 [9] = assay: Antiviral activity against HSV-1 (second line); assay type: cell-based; conditions: Human alphaherpesvirus 1; primary rabbit kidney cell cultures; second HSV-1 line; read-out: Minimal Inhibitory Concentration (required to reduce virus-induced cytopathogenicity by 50%)
Vaccinia = assay: microbe, parasite or virus in culture; assay type: cell-based; conditions: Orthopoxvirus vaccinia, in Oryctolagus cuniculus, read-out: Minimal Inhibitory Concentration (required to reduce virus-induced cytopathogenicity by 50%)
[10] = test system: Vesicular Stomatitis Virus; assay: microbe, parasite or virus in culture; assay type: cell-based; conditions: HeLa, read-out: Minimal Inhibitory Concentration (required to reduce virus-induced cytopathogenicity by 50%)
Reovirus-1 = assay: Antiviral activity against Reovirus-1; assay type: cell-based; conditions: Vero cell cultures; read-out: Minimal Inhibitory Concentration (required to reduce virus-induced cytopathogenicity by 50%)
Sindbis Virus = assay: Antiviral activity against Sindbis Virus; assay type: cell-based; conditions: Vero cell cultures, read-out: Minimal Inhibitory Concentration (required to reduce virus-induced cytopathogenicity by 50%)
Text: (§1) The antiviral activity of the dideoxynucleosides of the present invention against a variety of viruses were compared. The results, shown in Table 3, indicate that the compositions of the present invention are selectively effective against HIV virus.
(§2) ^1 Required to reduce virusinduced cytopathogenicity by 50%.
(§3) ^4 Antiviral activity measured in Vero cell cultures.

Coxsackie Virus B4 = assay: Antiviral activity against Coxsackie Virus B4; assay type: cell-based; conditions: Enterovirus B, Hela cell cultures, read-out: Minimal Inhibitory Concentration (required to reduce virus-induced cytopathogenicity by 50%)
Semliki Forest Virus = assay: Antiviral activity against Semliki Forest Virus; assay type: cell-based; conditions: Vero cell cultures, read-out: Minimal Inhibitory Concentration (required to reduce virus-induced cytopathogenicity by 50%)
Text: as §1, §2, §3

Parainfluenza Virus-3 = assay: Antiviral activity against Parainfluenza Virus-3; assay type: cell-based; conditions: Vero; read-out: Minimal Inhibitory Concentration (required to reduce virus-induced cytopathogenicity by 50%)
Polio Virus-1 = assay: organism not typed; assay type: cell-based; conditions: HeLa, read-out: Minimal Inhibitory Concentration (required to reduce virus-induced cytopathogenicity by 50%)
HTLV-III = assay: Antiviral activity against HTLV-III; assay type: cell-based, human immunodeficiency virus (HIV); conditions: for pIC50: Human immunodeficiency virus 1, ATH-8, T4+ human T cell (ATH8) cultures, read-out: Minimal Inhibitory Concentration (required to reduce virus-induced cytopathogenicity by 50%); for activity against HIV: Table 3 note
Text: as §1, §2
^5 Antiviral activity measured in T4+ human T cell (ATH8) cultures.

DNA and RNA viruses = assay: Antiviral activity against a variety of viruses (Table 3 overall); assay type: cell-based; conditions: Table 3 note
Text: as §1, §2

[11] = test system: HIV (HTLV-III/LAV), ATH8 cells; assay: Inhibition of cytopathic effect of HIV (HTLV-III/LAV) against ATH8 cells; assay type: cell-based, human immunodeficiency virus (HIV)
[12] = dog, in vivo
[13] = test system: HIV (HTLV-III/LAV) p24 gag protein, H9 cells; assay: Inhibition of infectivity and replication of HIV (p24 gag protein expression) in H9 cells; assay type: cell-based, human immunodeficiency virus (HIV)
[14] = 1 uM, 3H-uridine incorporation, mean ± 1 SD, triplicate
[15] = 10 uM, 3H-uridine incorporation, mean ± 1 SD, triplicate
[16] = 10 uM, 3H-thymidine incorporation, mean ± 1 SD, triplicate
[17] = 100 uM, 3H-thymidine incorporation, mean ± 1 SD, triplicate
[18] = 200 uM, 3H-uridine incorporation
[19] = 2,000 uM, 3H-uridine incorporation, mean ± 1 SD, triplicate

Row | SMILES | pIC50 (HSV-1 [8]) | pIC50 (HSV-1 [9]) | pIC50 (Vaccinia) | pIC50 [10] | pIC50 (Reovirus-1) | pIC50 (Sindbis Virus) | pIC50 (Coxsackie Virus B4) | pIC50 (Semliki Forest Virus) | pIC50 (Parainfluenza Virus-3) | pIC50 (Polio Virus-1) | pIC50 (HTLV-III) | activation of clone TM3, mean counts per minute [5, 16] | activation of clone TM3, mean counts per minute [5, 17] | activation of PBM + PHA, mean counts per minute [6, 16] | activation of PBM + PHA, mean counts per minute [6, 17] | activation of PBM + PWM, mean counts per minute [7, 16] | activation of PBM + PWM, mean counts per minute [7, 17] | also measured
1 | Nc1ncnc2c1ncn2[C@H]1CC[C@@H](COP(=O)(O)OP(=O)(O)OP(=O)(O)O)O1 | – | – | – | – | – | – | – | – | – | – | – | – | – | – | – | – | – | inhibition of cellular DNA polymerase beta [1]: can inhibit; inhibition of cellular DNA polymerase gamma [2]: can inhibit; inhibition of viral reverse transcriptase [3]: can inhibit; inhibition of mammalian DNA polymerase alpha [4]: but not mammalian DNA polymerase alpha
2 | Nc1nc2c(ncn2[C@H]2CC[C@@H](COP(=O)(O)OP(=O)(O)OP(=O)(O)O)O2)c(=O)[nH]1 | – | – | – | – | – | – | – | – | – | – | – | – | – | – | – | – | – | inhibition of cellular DNA polymerase beta [1]: can inhibit; inhibition of cellular DNA polymerase gamma [2]: can inhibit; inhibition of viral reverse transcriptase [3]: can inhibit; inhibition of mammalian DNA polymerase alpha [4]: but not mammalian DNA polymerase alpha
3 | Nc1ccn([C@H]2CC[C@@H](CO)O2)c(=O)n1 [2',3'-dideoxycytidine] | < 2.70 | < 2.70 | < 2.70 | < 2.70 | < 2.70 | < 2.70 | < 2.70 | < 2.70 | < 2.70 | < 2.70 | 6.52 | – | – | – | – | – | – | activation of clone TM3, mean counts per minute [5, 14]: 13 ± 1 counts per minute (×10^3); activation of clone TM3, mean counts per minute [5, 15]: 8 ± 1 counts per minute (×10^3); activation of PBM + PHA, mean counts per minute [6, 14]: 101 ± 1 counts per minute (×10^3); activation of PBM + PHA, mean counts per minute [6, 15]: 86 ± 3 counts per minute (×10^3); activation of PBM + PWM, mean counts per minute [7, 14]: 23 ± 3 counts per minute (×10^3); activation of PBM + PWM, mean counts per minute [7, 15]: 15 ± 3 counts per minute (×10^3); activity against HIV (HTLV-III): active against HIV; activity against the broad spectrum of DNA and RNA viruses (DNA and RNA viruses): not active
4 | OC[C@@H]1CC[C@H](n2cnc3c(O)ncnc32)O1 [2',3'-dideoxyinosine] | – | – | – | – | – | – | – | – | – | – | – | 62 ± 4 counts per minute (×10^3) | 81 ± 4 counts per minute (×10^3) | 298 ± 20 counts per minute (×10^3) | 355 ± 37 counts per minute (×10^3) | 61 ± 1 counts per minute (×10^3) | 62 ± 5 counts per minute (×10^3) | anti-retroviral activity against HIV [11]: have anti-retroviral activity against HIV
5 | Nc1ncnc2c1ncn2[C@H]1CC[C@@H](CO)O1 [2',3'-dideoxyadenosine] | < 2.70 | < 2.70 | < 2.70 | < 2.70 | < 2.70 | < 2.70 | < 2.70 | < 2.70 | < 2.70 | < 2.70 | 5.30 | 86 ± 8 counts per minute (×10^3) | 67 ± 2 counts per minute (×10^3) | 289 ± 18 counts per minute (×10^3) | 314 ± 37 counts per minute (×10^3) | 63 ± 5 counts per minute (×10^3) | 57 ± 3 counts per minute (×10^3) | anti-retroviral activity against HIV [11]: have anti-retroviral activity against HIV; activity against HIV (HTLV-III): active against HIV; activity against the broad spectrum of DNA and RNA viruses (DNA and RNA viruses): not active; oral bioavailability ([12]; pH 7): 41.6%; conversion of orally administered ddA to ddI ([12]; po): converted almost entirely to 2',3'-dideoxyinosine (ddI)
6 | Nc1nc2c(ncn2[C@H]2CC[C@@H](CO)O2)c(=O)[nH]1 [2',3'-dideoxyguanosine] | – | – | – | – | – | – | – | – | – | – | – | 66 ± 5 counts per minute (×10^3) | 77 ± 1 counts per minute (×10^3) | 350 ± 4 counts per minute (×10^3) | 469 ± 9 counts per minute (×10^3) | 73 ± 8 counts per minute (×10^3) | 62 ± 5 counts per minute (×10^3) | –
7 | O=c1ccn([C@H]2CC[C@@H](CO)O2)c(=O)[nH]1 [Dideoxyuridine] | < 2.70 | < 2.70 | < 2.70 | < 2.70 | < 2.70 | < 2.70 | < 2.70 | < 2.70 | < 2.70 | < 2.70 | < 4.00 | – | – | – | – | – | – | –
8 | Cc1cn([C@H]2CC[C@@H](CO)O2)c(=O)[nH]c1=O [2',3'-dideoxythymidine] | < 2.70 | < 2.70 | < 2.70 | < 2.70 | < 2.70 | < 2.70 | < 2.70 | < 2.70 | < 2.70 | < 2.70 | 3.70 | – | – | – | – | – | – | activation of clone TM3, mean counts per minute [5, 18]: 9 counts per minute (×10^3); activation of clone TM3, mean counts per minute [5, 19]: 9 counts per minute (×10^3); activation of PBM + PHA, mean counts per minute [6, 18]: 86 counts per minute (×10^3); activation of PBM + PHA, mean counts per minute [6, 19]: 77 counts per minute (×10^3); activation of PBM + PWM, mean counts per minute [7, 18]: 31 counts per minute (×10^3); activation of PBM + PWM, mean counts per minute [7, 19]: 31 counts per minute (×10^3); concentration required to exert a protective effect ([11]; ATH8 cells): relatively high concentrations; capacity to nullify the cytopathic effect of the virus ([11]; day 10 of culture, ATH8 cells): lost on day 10 of the culture; concentration required to mediate an anti-viral effect (p24 gag expression) [13]: relatively higher concentrations; resumption of viral replication ([13]; day 10 of culture): allowed a resumption of viral replication by day 10 of culture

From US5616566A, “Method of inhibiting HIV replication with 2',3'-dideoxyadenosine” (The United States of America as represented by the …, priority 1993, dated 1997)
